Source: patent US12617777B2, “GPR84 antagonists and uses thereof” (Liminal BioSciences Limited, priority 2021, dated 2026)

What was measured:
human GPR84 receptor = target: T1, human GPR84 receptor (Homo sapiens, UniProt Q9NQS5); test: Gαi biosensor BRET assay in HEK293 cells (antagonism of ZQ-16); type: cell-based; details: for inhibition at 10 µM: HEK293, single concentration 10 μM (designated F); for IC50: HEK293 cells, antagonism of 200 nmol/L ZQ-16; for inhibition at 2 µM: HEK293, single concentration 2 μM (designated A)
T1 construct: host or cells: HEK293, transient transfection
T1 sequence (Q9NQS5 whole entry): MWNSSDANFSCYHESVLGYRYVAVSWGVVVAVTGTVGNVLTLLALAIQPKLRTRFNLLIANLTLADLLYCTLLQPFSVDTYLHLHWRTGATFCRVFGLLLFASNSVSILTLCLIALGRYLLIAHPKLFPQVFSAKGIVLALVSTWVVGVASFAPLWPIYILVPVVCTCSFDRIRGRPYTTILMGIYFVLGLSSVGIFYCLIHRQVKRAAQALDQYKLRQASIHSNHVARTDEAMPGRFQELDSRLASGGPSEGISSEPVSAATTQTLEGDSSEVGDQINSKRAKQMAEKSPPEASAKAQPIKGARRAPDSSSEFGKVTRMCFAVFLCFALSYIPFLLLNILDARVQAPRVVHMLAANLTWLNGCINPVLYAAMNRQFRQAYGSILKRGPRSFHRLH
Outline: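 HEK293 cells transiently expressing human GPR84, Gαi2-Rluc8, GFP10-Gγ2 and Gβ1, in Tyrode's buffer pH 7.5. Compounds preincubated 5 min at 37° C, then 200 nmol/L ZQ-16 for 5 min at room temperature; coelenterazine 400A 5 μmol/L. BRET2 acceptor/donor ratio, background- and vehicle-corrected net BRET.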

neutrophils = test: Neutrophil migration assay (embelin as chemotactic agent, ATPlite readout); type: cell-based; details: for IC50: Neutrophil, human neutrophils, embelin as chemotactic agent, read-out: Human Neutrophil migration inhibition IC50; for Human Neutrophil migration inhibition - fold potency to Control Compound: normalized to GPR84 antagonist Control Compound (average IC50 131 nM)
Procedure: Neutrophil migration assay. After isolation, neutrophils were resuspended in chemotaxis buffer (DMEM supplemented with 10 mM HEPES) at a concentration of 8.9×10^6 cells/ml. In a 96-well plate, 20 μl of compound solution in chemotaxis buffer is added to 180 μl of cell suspension. After incubation at 37° C. for 30 minutes, 75 μl of cell suspension is transferred in the upper chamber of a 5 μm pore size Corning HTS transwell. 235 μl of chemotaxis buffer containing the chemotactic agent (embelin) is added to the lower chamber of the transwell. After a 60-minute incubation time at 37° C. in 5%0 C02, the upper chamber of the transwell is removed and the plate is centrifuged at 1500 rpm for 6 minutes. Supermatant is removed and cells resuspended in 100 ul of PBS. ATP content was assessed using ATPlite Luminescence Assay System® according to manufacturer instructions (Perkin Elmer, Buckinghamshire, UK). Briefly, 50 μl of ATPlite buffer and 50 μl of lysis solution is added to the lower chamber of the Transwells. After incubation at room temperature, in the dark with constant agitation for 5 minutes, 150 μl of cell lysate is transferred in a 96 wells white plate and incubated for 10 minutes in the dark. Luminescence is read on a TECAN plate reader, Infinite M1000 (Tecan, Morrisville, NC).
The compound numbers correspond to the compound numbers in Table 1. […] Normalization of the results takes the donor's variation into account.

inhibition at 10 µM (human GPR84 receptor) | IC50 (human GPR84 receptor) | IC50 (neutrophils) | inhibition at 2 µM (human GPR84 receptor) | inhibition at 6 µM (human GPR84 receptor; HEK293, single concentration 6.00 μM (designated D°)) | inhibition at 5 µM (human GPR84 receptor; HEK293, single concentration 5 μM (designated D)) | SMILES | Human Neutrophil migration inhibition - fold potency to Control Compound (neutrophils)
– | 0.3 to 1 µM | ≤ 0.3 µM | > 75% | – | – | CCc1cc(C#CCNc2ccccc2)cnc1-c1cn(CC2CC(C)(C)CO2)nn1 (stereo not drawn) [Compound I-474] | A (IC50 of >1.0-fold relative to Control Compound)
– | 0.3 to 1 µM | ≤ 0.3 µM | – | – | > 75% | Cc1cc(C#CCN(C)Cc2ccccc2)ccc1-c1cn(CC2CCCCO2)nn1 (stereo not drawn) [Compound I-76] | B (IC50 of >0.5-≤1.0-fold relative to Control Compound)
> 75% | 1 to 3 µM | 0.3 to 1 µM | – | – | – | Cc1cc(C#CC2CC2)cnc1-c1cn(C[C@H]2CCCCO2)nn1 [Compound I-245] | C (IC50≤0.5-fold relative to Control Compound)
> 75% | 0.3 to 1 µM | ≤ 0.3 µM | – | – | – | Cc1cc(N2CC(C)(N(C)Cc3ccccn3)C2)ccc1-c1cn(CC2CCCCO2)nn1 (stereo not drawn) [Compound I-451] | A (IC50 of >1.0-fold relative to Control Compound)
25 to 50% | 0.3 to 1 µM | ≤ 0.3 µM | – | – | – | Cc1cc(N2CC(C)(N(C)Cc3ccccc3)C2)ccc1-c1cn(CC2CCCCO2)nn1 (stereo not drawn) [Compound I-553] | B (IC50 of >0.5-≤1.0-fold relative to Control Compound)
> 75% | 0.3 to 1 µM | ≤ 0.3 µM | – | – | – | Cc1cc(C#CCNc2ccccc2)ccc1-c1cn(C[C@H]2CCCCO2)nn1 [Compound I-166] | A (IC50 of >1.0-fold relative to Control Compound)
≤ 25% | 1 to 3 µM | 1 to 3 µM | – | – | – | Cc1cc(C#CCNc2ccccc2)ccc1-c1cn(C[C@@H]2CCCCO2)nn1 (stereo in doubt) [Compound I-144] | C (IC50≤0.5-fold relative to Control Compound)
– | 0.3 to 1 µM | ≤ 0.3 µM | > 75% | – | – | CC(C)Oc1cc(C#CCN2CC(C)(C)C2)ccc1-c1cn(C[C@H]2CCCCO2)nn1 [Compound I-413] | B (IC50 of >0.5-≤1.0-fold relative to Control Compound)
> 75% | ≤ 0.3 µM | ≤ 0.3 µM | – | – | – | Cc1cc(N2CCN(Cc3ccccn3)CC2)ccc1-c1cn(CC2OCC(C)(C)CO2)nn1 [Compound I-531] | A (IC50 of >1.0-fold relative to Control Compound)
> 75% | 1 to 3 µM | ≤ 0.3 µM | – | – | – | CCc1cc(N2CCN(Cc3ccccn3)CC2)cnc1-c1cn(C[C@H]2CCCCO2)nn1 [Compound I-459] | C (IC50≤0.5-fold relative to Control Compound)
> 75% | ≤ 0.3 µM | 0.3 to 1 µM | – | – | – | Cc1cc(N2CC(C)(CNc3ccccc3)C2)ccc1-c1cn(CC2CCCCO2)nn1 (stereo not drawn) [Compound I-411] | B (IC50 of >0.5-≤1.0-fold relative to Control Compound)
> 75% | ≤ 0.3 µM | ≤ 0.3 µM | – | – | – | Cc1cc(C#CCN2CC(C)(C)C2)ccc1-c1cn(CC2OCC(C)(C)CO2)nn1 [Compound I-634] | A (IC50 of >1.0-fold relative to Control Compound)
> 75% | 1 to 3 µM | ≤ 0.3 µM | – | – | – | CC(C)c1cc(C#CCN2CC(C)(C)C2)cnc1-c1cn(CC2CCCCO2)nn1 (stereo not drawn) [Compound I-462] | C (IC50≤0.5-fold relative to Control Compound)
> 75% | ≤ 0.3 µM | ≤ 0.3 µM | – | – | – | Cc1cc(N2CCN(Cc3ccccn3)CC2)ccc1-c1cn(CC2CCC(C)(C)CO2)nn1 (stereo not drawn) [Compound I-562] | A (IC50 of >1.0-fold relative to Control Compound)

Second part, the compound before the results:

SMILES | inhibition at 10 µM (human GPR84 receptor) | IC50 (human GPR84 receptor) | IC50 (neutrophils) | inhibition at 2 µM (human GPR84 receptor) | inhibition at 6 µM (human GPR84 receptor; HEK293, single concentration 6.00 μM (designated D°)) | inhibition at 5 µM (human GPR84 receptor; HEK293, single concentration 5 μM (designated D)) | Human Neutrophil migration inhibition - fold potency to Control Compound (neutrophils)
Cc1cc(C#CC2CC2)cnc1-c1cn(CC2CCCCO2)cn1 (stereo not drawn) [Compound I-424] | > 75% | 1 to 3 µM | ≤ 0.3 µM | – | – | – | A (IC50 of >1.0-fold relative to Control Compound)
Cc1cc(N2CCN(Cc3ccccn3)CC2)ccc1-c1cn(C[C@H]2CCCCO2)nn1 [Compound I-423] | – | 0.3 to 1 µM | ≤ 0.3 µM | – | > 75% | – | A (IC50 of >1.0-fold relative to Control Compound)
Cc1cc(N2CCN(Cc3ccccn3)CC2)ccc1-c1cn(C[C@@H]2CCC(F)(F)CO2)nn1 (stereo in doubt) [Compound I-636] | > 75% | ≤ 0.3 µM | ≤ 0.3 µM | – | – | – | A (IC50 of >1.0-fold relative to Control Compound)
Cc1ccc(C#CC2CC2)cc1C(OC1CC1)c1cn(CC2OCC(C)(C)CO2)nn1 (stereo not drawn) [Compound I-644] | – | 0.3 to 1 µM | ≤ 0.3 µM | > 75% | – | – | A (IC50 of >1.0-fold relative to Control Compound)
Cc1cc(N2CC3(CCCN3Cc3ccccc3)C2)ccc1-c1cn(CC2CCCCO2)nn1 (stereo not drawn) [Compound I-149] | – | – | 1 to 3 µM | 25 to 50% | – | – | C (IC50≤0.5-fold relative to Control Compound)
Cc1cc(N2CCN(Cc3ccccn3)CC2)ccc1-c1cn(CC2OCC3(CC3)CO2)nn1 [Compound I-637] | – | 0.3 to 1 µM | ≤ 0.3 µM | > 75% | – | – | A (IC50 of >1.0-fold relative to Control Compound)
CN(C)c1cc(C#CC2CC2)ccc1-c1cn(CC2CCCCO2)nn1 (stereo not drawn) [Compound I-87] | – | 1 to 3 µM | 1 to 3 µM | – | – | – | C (IC50≤0.5-fold relative to Control Compound)
Cc1cc(C#CC2(O)CCCCC2)ccc1-c1cn(CC2CCCCO2)nn1 (stereo not drawn) [Compound I-94] | > 75% | 1 to 3 µM | 1 to 3 µM | – | – | – | C (IC50≤0.5-fold relative to Control Compound)
Cc1ccc(C#CC2CC2)cc1Cc1nnn(CC2CCCCO2)n1 (stereo not drawn) [Compound I-418] | – | 0.3 to 1 µM | 1 to 3 µM | > 75% | – | – | C (IC50≤0.5-fold relative to Control Compound)
CN(C)c1cc(N2CC(C)(C)C2)ccc1-c1cn(CC2OCC(C)(C)CO2)nn1 [Compound I-585] | > 75% | ≤ 0.3 µM | ≤ 0.3 µM | – | – | – | A (IC50 of >1.0-fold relative to Control Compound)
Cc1cc(C#CCn2cc(-c3ccc([N+](=O)[O-])cc3)nn2)ccc1-c1cn(CC2CCCCO2)nn1 (stereo not drawn) [Compound I-454] | > 75% | ≤ 0.3 µM | ≤ 0.3 µM | – | – | – | A (IC50 of >1.0-fold relative to Control Compound)
Cc1cc(C#CCN(C)CC2CC2)ccc1-c1cn(CC2CCCCO2)nn1 (stereo not drawn) [Compound I-121] | > 75% | 0.3 to 1 µM | 0.3 to 1 µM | – | – | – | C (IC50≤0.5-fold relative to Control Compound)
